Assay results taken from patent US10011570B2, “Nucleic acid binding dyes with improved safety” (Biotium, Inc., priority 2013, dated 2018).

Legend:
[1] = California Title 22 toxicity test for hazardous waste characterization; assay type: in vivo, Pimephales promelas; details: Pimephales promelas (fathead minnow), in vivo; 0.65 uM dye solution in water tested at 750, 500 and 250 mg/L, Fathead minnow; read-out: median lethal concentration (LC50)
Experimental: (§1) Stock solutions of Dye No. 11 and Dye No. 4 at 0.65 uM each in water were submitted to Nautilus Environmental (San Diego, Calif.) for California Title 22 toxicity testing for hazardous waste characterization. The solutions were tested at 750, 500, and 250 mg/L plus lab control in Pimephales promelas (Fathead minnow) in two replicates of 10 fish each according to the California Department of Fish and Game 1988 Acute Procedures.

[2] = system: Pimephales promelas (Fathead minnow); assay: as above; assay type: in vivo; details: 0.65 uM dye solution in water, aquatic life
Experimental: as §1

[3] = system: 1 kb DNA ladder in 1% agarose gel; assay: Post staining of agarose gels; details: 0.65 uM dye in water, 30 minutes, 1 kb DNA ladder 200-25 ng per lane
Experimental: Two-fold dilutions of 1 kb DNA ladder (Biotium, 200 ng-25 ng) or low-molecular weight DNA ladder (NEB, 50-12.5 ng/lane) were separated on 1% agarose/1×TBE gels in 1× TBE at 110 V for 90 minutes. Gels were post-stained with dyes at indicated concentrations in 50 mL staining solution with rocking for 30 minutes at room temperature, protected from light. The staining solutions were prepared by adding a dye stock solution in DMSO to water. […] In particular, dyes of the invention can readily penetrate dense polyacrylamide gels. […] Use of low dye concentration in the staining, coupled with the dyes' low cell membrane permeability (See below), makes the dyes safer to handle. Compound 25 of U.S. Pat. No. 7,446,202 is an asymmetric cyanine dye comprising a negatively charged substituent. The dye is described to be a sensitive dsDNA binding dye useful for selective dsDNA quantitation in solution. In this experiment, this dye is compared with the asymmetric cyanine dye Dye No. 4 of the present invention in detecting dsDNA in agarose gel. 1 kb DNA ladder (Biotium) was loaded on a 1% agarose/1×TBE gel at 200, 100, 50, or 25 ng per lane in duplicate and separated by electrophoresis at 100V. […]

HeLa cells = assay: Live cell staining (cell membrane permeability, confocal microscopy); assay type: cell-based, human; details: for cell staining after 5 minutes incubation / cell staining after 30 minutes incubation: HeLa cells, 37 C, dyes at 0.65 uM, Sybr Safe at 1×; for cellular staining of live cells (cell membrane permeability): normal working concentration used in gel staining, time not stated (FIG. 12)
Experimental: Dye No. 4, Dye No. […] and SYBR Safe are tested for their cell membrane permeability. HeLa cells were incubated with 1× Sybr Safe, 0.65 uM Dye No 4 and 0.65 uM Dye No. 11 in cell culture medium at 37 C. Hoechst 33342 (1 ug/mL) was included to stain DNA with blue fluorescence. Cells were imaged after 5 minutes and 30 minutes incubation on the appropriate fluorescence channel (FITC for Sybr Safe and Dye No. 4, and Cy3 for Dye No. […]) on a Zeiss LSM 700 confocal microscope. […] Hoechst staining for the same microscopic field is shown below each image (D-F, J-L).

Calf Thymus DNA; RNA = assay: Nucleic acid detection in solution (fluorescence titration); assay type: binding; details: 2 uM Dye No. 4 or 1.3 uM Compound 25 in TE buffer, fluorescence microplate reader
Experimental: Compound 25 of U.S. Pat. No. 7,446,202 and Dye No. 4 were compared in nucleic acid detection in solution. Calf Thymus DNA (Sigma) was used to titrate 2 uM Dye No. 4 or 1.3 uM Compound 25 of U.S. Pat. No. 7,446,202 in TE buffer. The fluorescence of the solution was measured on a fluorescence microplate reader (200 uL volume/well and 5 minutes incubation time). Same optical setting was used for both dyes as the two dyes have nearly identical spectral profile.

[4] = system: 1 kb DNA ladder in 1% agarose TBE gels; assay: Prestaining of agarose gels; details: dye mixed with DNA in loading buffer, compared with propidium iodide
Experimental: Two-fold dilutions of 1 kb DNA ladder (200 ng-25 ng per lane) were mixed with propidium iodide (PI) or Dye No, 10 in DNA loading buffer at the final concentrations indicated and separated on 1% agarose TBE gels containing no additional DNA dye.

Structure (SMILES)	LC50 [1] [mg/L]	classification under CCR Title 22 regulations [2]	signal of stained gel compared with Compound 25 [3]	cell staining after 5 minutes incubation (HeLa cells)	cell staining after 30 minutes incubation (HeLa cells)	cellular staining of live cells (cell membrane permeability) (HeLa cells)	nucleic acid binding profile (dsDNA versus RNA) (Calf Thymus DNA; RNA)	brightness in prestaining of gels [4]
C[n+]1c(C=C2C=CN(CCCSCC(N)C(=O)[O-])c3ccccc32)sc2ccccc21.I (stereo not shown) [Dye No. 4]	> 750	non-hazardous	significantly higher signal	no staining was detectable	no staining was detectable	did not produce any cellular staining at all	binds to both dsDNA and RNA	
C[N+](C)(C)CCC[n+]1c(-c2ccc(S(=O)(=O)[O-])cc2)c2cc(N)ccc2c2ccc(N)cc21.[I-] [Dye No. 11]	> 750	non-hazardous		no staining was detectable	no staining was detectable	did not produce any cellular staining at all		
CC[N+](C)(CC)CCC[n+]1c(-c2ccc(S(=O)(=O)[O-])cc2)c2cc(N)ccc2c2ccc(N)cc21.[I-] [Dye No. 10]								as bright as PI
